What was measured:
Assay type in all cases: in vivo
[1] = tested on: Amaranthus retroflexus (AMARE); assay: Post-emergence herbicidal efficacy at 320 g/ha, greenhouse pot test; conditions: visual rating vs untreated control after about 3 weeks
Protocol: (§1) Seeds of mono- and dicotyledonous weed plants were placed in plastic pots in sandy loam soil (doubly sown with in each case one species of mono- or dicotyledonous weed plants per pot), covered with soil and cultivated in a greenhouse under controlled growth conditions. 2 to 3 weeks after sowing, the test plants were treated at the one-leaf stage. The compounds of the invention, formulated in the form of wettable powders (WP) or as emulsion concentrates (EC), were applied onto the green parts of the plants as aqueous suspension or emulsion with addition of 0.5% additive at a water application rate of 600 liters per hectare (converted). After the test plants had been kept in the greenhouse under optimum growth conditions for about 3 weeks, the activity of the preparations was rated visually in comparison to untreated controls. For example, 100% activity=the plants have died, 0% activity=like control plants. Tables […] 11 below show the effects of selected compounds of the general formula (I) according to Table 1 on various harmful plants and an application rate corresponding to 320 g/ha, which were obtained by the experimental procedure mentioned above.

Bassia scoparia (KCHSC) = assay: Pre-emergence herbicide efficacy at 320 g/ha, greenhouse pot test; conditions: dosage 1280 g/ha in Table C6, visual scoring after about 3 weeks
Excerpt: (§2) Seeds of mono- and dicotyledonous weed plants were placed in plastic pots in sandy loam soil (doubly sown with in each case one species of mono- or dicotyledonous weed plants per pot) and covered with soil. The compounds of the invention, formulated in the form of wettable powders (WP) or as emulsion concentrates (EC), were then applied onto the surface of the covering soil as aqueous suspension or emulsion with addition of 0.5% additive at a water application rate of 600 liters per hectare (converted). After the treatment, the pots were placed in a greenhouse and kept under good growth conditions for the test plants. After about 3 weeks, the effect of the preparations was scored visually in comparison with untreated controls as percentages. For example, 100% activity=the plants have died, 0% activity=like control plants. Tables C1 to C12 below show the effects of selected compounds of the general formula (I) according to Table 1 on various harmful plants and an application rate corresponding to 320 g/ha, which were obtained by the experimental procedure mentioned above.

Stellaria media (STEME) [2] = assay: as above; conditions: visual scoring vs untreated control after about 3 weeks
Excerpt: as §2

Poa annua (POAAN) [3] = assay: as above; conditions: visual scoring vs untreated control after about 3 weeks
Excerpt: as §2

Stellaria media (STEME) [4] = assay: Post-emergence herbicidal efficacy at 320 g/ha, greenhouse pot test; conditions: visual rating vs untreated control after about 3 weeks
Protocol: as §1

Poa annua (POAAN) [5] = assay: as above; conditions: visual rating vs untreated control after about 3 weeks
Protocol: as §1

Veronica persica (VERPE) [6] = assay: as above; conditions: 320 g/ha, visual rating vs untreated control after about 3 weeks
Protocol: as §1

[7] = tested on: Amaranthus retroflexus (AMARE); assay: Pre-emergence herbicide efficacy at 320 g/ha, greenhouse pot test; conditions: visual scoring vs untreated control after about 3 weeks
Excerpt: as §2

[8] = tested on: Abutilon theophrasti (ABUTH); assay: as above; conditions: visual scoring vs untreated control after about 3 weeks
Excerpt: as §2

[9] = tested on: Matricaria inodora (MATIN); assay: as above; conditions: visual scoring vs untreated control after about 3 weeks
Excerpt: as §2

[10] = tested on: Abutilon theophrasti (ABUTH); assay: Post-emergence herbicidal efficacy at 320 g/ha, greenhouse pot test; conditions: visual rating vs untreated control after about 3 weeks
Protocol: as §1

[11] = tested on: Echinochloa crus-galli (ECHCG); assay: Pre-emergence herbicide efficacy at 320 g/ha, greenhouse pot test; conditions: visual scoring vs untreated control after about 3 weeks
Excerpt: as §2

Veronica persica (VERPE) [12] = assay: as above; conditions: visual scoring vs untreated control after about 3 weeks
Excerpt: as §2

Setaria viridis (SETVI) = assay: as above; conditions: visual scoring vs untreated control after about 3 weeks
Excerpt: as §2

SMILES	Post-emergence efficacy against Amaranthus retroflexus (AMARE) [1] [%]	Pre-emergence efficacy against Bassia scoparia (KCHSC) (Bassia scoparia (KCHSC)) [%]	Pre-emergence efficacy against Stellaria media (STEME) (Stellaria media (STEME) [2]) [%]	Pre-emergence efficacy against Poa annua (POAAN) (Poa annua (POAAN) [3]) [%]	Post-emergence action against Stellaria media (STEME) (Stellaria media (STEME) [4]) [%]	Post-emergence efficacy against Poa annua (POAAN) (Poa annua (POAAN) [5]) [%]	Post-emergence efficacy against Veronica persica (VERPE) (Veronica persica (VERPE) [6]) [%]	Pre-emergence efficacy against Amaranthus retroflexus (AMARE) [7] [%]	Pre-emergence efficacy against Abutilon theophrasti (ABUTH) [8] [%]	Pre-emergence efficacy against Matricaria inodora (MATIN) [9] [%]	Post-emergence efficacy against Abutilon theophrasti (ABUTH) [10] [%]	Pre-emergence efficacy against Echinochloa crus-galli (ECHCG) [11] [%]	Pre-emergence efficacy against Veronica persica (VERPE) (Veronica persica (VERPE) [12]) [%]	Pre-emergence efficacy against Setaria viridis (SETVI) (Setaria viridis (SETVI)) [%]
Cc1ccc(-c2cc(C(F)F)on2)c(Oc2ncc(F)cn2)n1 [Example I-13]	90	–	–	–	–	–	–	–	–	–	–	–	–	–
Cc1cc(C)c(-c2cc(C(F)F)no2)c(Oc2ncc(Cl)cc2Cl)n1 [Example I-288]	100	90	90	90	90	90	90	–	–	–	–	–	–	–
Cc1cc(C)c(-c2cc(C(F)F)no2)c(Oc2ncc(Cl)cc2C#N)n1 [Example I-290]	100	–	–	–	–	–	90	–	–	–	–	–	–	–
Cc1cc(C)c(-n2cccn2)c(Oc2ncc(Cl)cn2)n1 [Example I-245]	–	100	100	–	–	–	–	100	90	90	–	–	–	–
Cc1cc(C)c(-c2cc(C(F)F)no2)c(Oc2ncc(F)cc2C#N)n1 [Example I-289]	100	90	90	–	90	90	90	–	–	–	–	–	–	–
Cc1cc(C)c(-c2cc(C3(C)CC3)no2)c(Oc2ncc(Br)cn2)n1 [Example I-298]	–	–	100	–	90	–	90	90	–	90	90	–	–	–
Cc1cc(C)c(-n2cc(Br)cn2)c(Oc2ncc(Cl)cn2)n1 [Example I-278]	100	100	100	–	90	–	90	–	100	–	–	100	100	–
Cc1cc(C)c(-c2cc(C(F)F)no2)c(Oc2ncc(C#N)cn2)n1 [Example I-46]	100	90	90	–	100	90	100	90	90	100	–	–	–	–
Cc1ccc(-c2cc(C(F)F)on2)c(Oc2ncc(Cl)cn2)n1 [Example I-12]	–	–	90	100	–	–	–	100	90	–	–	–	–	–
Cc1cc(C)c(-c2cc(C(F)F)no2)c(Oc2ncc(Br)cc2C#N)n1 [Example I-291]	90	90	–	–	–	–	90	–	–	–	–	–	–	–
Cc1cc(C)c(-c2cc(CC3CC3)no2)c(Oc2ncc(Cl)cc2F)n1 [Example I-202]	–	–	100	–	90	100	–	90	–	–	–	–	–	–
Cc1cc(C)c(-c2cc(C3CC3)no2)c(Oc2ncc(Br)cn2)n1 [Example I-296]	90	100	100	100	100	90	100	100	100	100	–	90	90	100
Cc1cc(C)c(-c2cc(CC3CC3)no2)c(Oc2ncc(F)cn2)n1 [Example I-200]	90	–	100	90	90	–	90	100	90	90	–	90	–	–
Cc1cc(C)c(-n2cccn2)c(Oc2ncc(F)cn2)n1 [Example I-244]	–	90	–	–	–	–	–	–	–	–	–	–	90	–
Cc1cc(C)c(-c2cc(C3(C)CC3)no2)c(Oc2ncc(Cl)cc2F)n1 [Example I-301]	–	–	–	–	90	–	90	–	–	–	–	–	–	–
Cc1cc(C)c(-c2cc(C3(C)CC3)no2)c(Oc2ncc(Cl)cn2)n1 [Example I-297]	–	–	100	–	–	–	90	90	90	100	–	–	–	–
Cc1cc(C)c(-c2cc(CC3CC3)no2)c(Oc2ncc(Br)cn2)n1 [Example I-300]	–	–	90	–	90	–	–	–	–	–	–	–	–	–
Cc1cc(C)c(-c2cc(C3CC3)no2)c(Oc2ncc(Cl)cc2F)n1 [Example I-180]	–	–	100	100	100	–	90	100	–	100	–	–	–	–
